According to article PMC11855827, “High-Throughput Screening of Five Compound Libraries for Anthelmintic Activity and Toxicity Leads to the Discovery of Two Flavonoid Compounds” (International Journal of Molecular Sciences, 2025):

Tested on: C. elegans
Conditions: Table S2, C. elegans SS assay, 110 μM, averages of 4 data points

Row | Molecule | Percentage of motility inhibition 0 h [%] | Percentage of motility inhibition 24 h [%]
1 | CC(C)(O[C@@H]1O[C@H](CO)[C@@H](O)[C@H](O)[C@H]1O)[C@@H]1CC[C@](C)([C@H]2[C@@H](O)C[C@@]3(C)[C@@H]4C[C@H](O)[C@H]5C(C)(C)[C@@H](O[C@@H]6OC[C@@H](O)[C@H](O)[C@H]6O)CC[C@@]56C[C@@]46CC[C@]23C)O1 [Isoastragaloside IV] | 0 | 0
2 | COc1ccc(-c2oc3c(CC=C(C)C)c(O)cc(O)c3c(=O)c2O[C@@H]2O[C@@H](C)[C@H](O)[C@@H](O)[C@H]2O[C@@H]2O[C@@H](C)[C@H](O)[C@@H](O)[C@H]2O)cc1 [2''‐O‐Rhamnosylicariside II] | 0 | 13
3 | Oc1cc(O)c2c(c1)O[C@@]1(c3ccc(O)c(O)c3)Oc3cc(O)c4c(c3[C@@H]2[C@H]1O)O[C@H](c1ccc(O)c(O)c1)[C@H](O)C4 [Procyanidin A2] | 6 | 3
4 | C[C@@H]1O[C@@H](OC[C@H]2O[C@@H](Oc3c(-c4ccc(O)c(O)c4)oc4cc(O)cc(O)c4c3=O)[C@H](O)[C@@H](O)[C@@H]2O)[C@H](O)[C@H](O)[C@H]1O.O [Rutin (hydrate)] | 2 | 8
5 | CC(=O)O[C@@]1(C)C[C@@H](O)[C@]2(O)C=CO[C@@H](O[C@@H]3O[C@H](CO)[C@@H](O)[C@H](O)[C@H]3O)[C@@H]21 [8-O-Acetylharpagide] | 10 | 29
6 | COc1ccc2c(c1O)-c1c(O)c(OC)cc3c1[C@H](C2)[N+](C)(C)CC3.[Cl-] [(+)‐Magnoflorine (chloride)] | 0 | 0
7 | Cn1cnc2c(ncn2[C@@H]2O[C@H](CO)[C@@H](O)[C@H]2O)c1=N [1‐Methyladenosine] | 7 | 0
8 | COc1c(O[C@@H]2O[C@H](CO[C@@H]3OC[C@@H](O)[C@H](O)[C@H]3O)[C@@H](O)[C@H](O)[C@H]2O)cc2occ(-c3ccc(O)cc3)c(=O)c2c1O [Tectorigenin 7‐O‐Xylosyl Glucoside] | 0 | 1
9 | COc1cc2c3c(c1OC)-c1ccccc1C[C@H]3[N+](C)(C)CC2 [N‐Methylnuciferine] | 0 | 0
10 | CC(=O)O.NCc1ccc(S(N)(=O)=O)cc1 [Mafenide (Acetate)] | 21 | 10
11 | O=C(O[C@H]1Cc2c(O)cc(O)cc2O[C@@H]1c1ccc(O)c(O)c1)c1cc(O)c(O)c(O)c1 [(‐)‐Catechin gallate] | 3 | 0
12 | C=C[C@H]1[C@H](O[C@@H]2O[C@H](CO)[C@@H](O)[C@H](O)[C@H]2O)OC=C(C(=O)OC)[C@H]1CC(=O)O [Secoxyloganin] | 0 | 3
13 | C=C(C)[C@@H]1CC[C@]2(C)[C@H](CC=C3[C@@H]4[C@@H](C)[C@H](C)CC[C@]4(C)CC[C@]32C)[C@@]1(C)CCC(=O)O [Roburic acid] | 11 | 15
14 | CCCNC[C@]1(O)[C@H](C)O[C@@H](O[C@H]2[C@H](C)[C@@H](O[C@@H]3O[C@H](C)C[C@H](N(C)C)[C@H]3O)[C@](C)(O)C[C@@H](C)CN[C@H](C)[C@@H](O)[C@](C)(O)[C@@H](CC)OC(=O)[C@@H]2C)C[C@@]1(C)OC [Tulathromycin A] | 20 | 9
15 | O=CN1C[C@@H]2C[C@H](C1)c1cccc(=O)n1C2 [N‐Formylcytisine] | 0 | 0
16 | Hyaluronic acid | 0 | 4
17 | O=C(CC(O)(CC(=O)OCc1ccc(OC2OC(CO)C(O)C(O)C2O)cc1)C(=O)OCc1ccc(OC2OC(CO)C(O)C(O)C2O)cc1)OCc1ccc(OC2OC(CO)C(O)C(O)C2O)cc1 (stereo not shown) [Parishin] | 0 | 12
18 | C[C@H](CC[C@@H](O[C@@H]1O[C@H](CO)[C@@H](O)[C@H](O)[C@H]1O[C@@H]1O[C@H](CO)[C@@H](O)[C@H](O)[C@H]1O)C(C)(C)O)[C@H]1CC[C@@]2(C)[C@H]3CC=C4[C@@H](CC[C@H](O[C@@H]5O[C@H](CO[C@@H]6O[C@H](CO)[C@@H](O)[C@H](O)[C@H]6O)[C@@H](O)[C@H](O)[C@H]5O)C4(C)C)[C@]3(C)[C@H](O)C[C@]12C [Mogroside IV] | 0 | 43
19 | CCn1cc(C(=O)O)c(=O)c2cc(F)c(N3CCNC(C)C3)c(F)c21.Cl (stereo not shown) [Lomefloxacin (hydrochloride)] | 39 | 0
20 | Clc1ccc(C(Cn2ccnc2)OCc2ccc(Sc3ccccc3)cc2)c(Cl)c1.O=[N+]([O-])O (stereo not shown) [Fenticonazole (Nitrate)] | 45 | 13
21 | C=C1CC[C@@]2(C)[C@H]([C@@H]1C)[C@H]1CC[C@@H]3[C@@]4(C)CC[C@H](O)C(C)(C)[C@@H]4CC[C@@]3(C)[C@]1(C)C[C@@H]2O [Arnidiol] | 12 | 57
22 | CSC(=O)OCC1=C[C@@H]2OC(=O)C3=CO[C@@H](O[C@@H]4O[C@H](CO)[C@@H](O)[C@H](O)[C@H]4O)[C@H]1[C@@H]32 [Paederoside] | 9 | 4
23 | CC(CC(=O)CC(C)(O)C1CC(=O)C2(C)C3=C(C(=O)CC12C)C1(C)CCC(=O)C(C)(C)C1CC3O)C(=O)O (stereo not shown) [Ganoderic acid N] | 0 | 0
24 | Colistin (sulfate) | 14 | 0
25 | C[C@@H]1CC[C@@]2(OC1)O[C@H]1C[C@H]3[C@@H]4CC=C5C[C@@H](O[C@@H]6O[C@H](CO)[C@@H](O[C@@H]7O[C@H](CO)[C@@H](O)[C@H](O[C@@H]8O[C@H](CO)[C@@H](O)[C@H](O)[C@H]8O)[C@H]7O)[C@H](O)[C@H]6O[C@@H]6O[C@@H](C)[C@H](O)[C@@H](O)[C@H]6O)CC[C@]5(C)[C@H]4CC[C@]3(C)[C@H]1[C@@H]2C [Zingiberen Newsaponin] | 0 | 60
26 | CC(=O)OCC1=C(C(=O)O)N2C(=O)[C@@H](N)[C@H]2SC1 [7‐Aminocephalosporanic acid] | 3 | 0
27 | C=C1CC[C@@H]2[C@](C)(COC(=O)CCC(=O)[O-])[C@H](OC(=O)CCC(=O)O)CC[C@@]2(C)[C@@H]1/C=C/C1=CCOC1=O.[K+] [Kalii Dehydrographolidi Succinas] | 5 | 5
28 | Oc1ccc2c(c1)OC[C@H]1c3cc4c(cc3O[C@@H]21)OCO4 [(-)-Maackiain] | 26 | 26
29 | CN1CC[C@]23c4ccccc4N[C@H]1[C@]21CCN(C)[C@H]3Nc2ccccc21 [Calycanthine] | 0 | 0
